The text below walks through data of PMC11428108 (Frontiers in Molecular Neuroscience, 2024).

The target in assay [1] is human (α4)2(β2)2β2/α4 (α4β2*) nAChRs (Homo sapiens, UniProt P17787+P43681). Nature of the assay: FLEXstation membrane potential assay in HEK cells stably expressing α4β2* nAChRs. Format: cell-based. The settings on record: nicotine 0.001–50 μM, ±SEM. From the text:
(§1) Human embryonic kidney (HEK) cell lines stably expressing human (α4)2(β2)2β2/α4 (α4β2*) nAChRs, (α4)2(β2)2α5 nAChRs, (α4)2(β2)2β3 nAChRs, (α3)2(β4)2α3/β4 (α3β4*) nAChRs, (α3)2(β2)2α3/β2 (α3β2*) nAChRs, (α3)2(β4)2α5 nAChRs, or (α3)2(β2)2α5 nAChRs were maintained as described previously ([Wang et al., 2015]; [Kuryatov et al., 2005]; [Caligiuri et al., 2022]). The FLEXstation bench top scanning fluorometer from Molecular Devices was used to assay nAChR function in these cells, according to published protocols ([Wang et al., 2015]; [Kuryatov et al., 2005]). The membrane potential kit (Molecular Devices) was used according to the manufacturer’s protocols. Serial dilutions of SR9883 were manually added to the assay plate 15 min prior to recording. […] Compound dilutions were prepared in V-shaped 96-well plates (Fisher Scientific Co.) and added to cell culture wells at a rate of 20 μL s^−1 during recording. Cells were incubated at 29°C for 6–20 h prior to assays to upregulate nAChRs ([Wang et al., 2015]; [Kuryatov et al., 2005]). Data points were averaged from 3 to 4 responses from separate wells. Potency and efficacy were calculated using the Hill equation as described previously ([Wang et al., 2015]).
(§2) Concentration-response curves of SR9883 actions in nAChR-expressing HEK cells and oocytes were fitted to the Hill equation using a nonlinear least squares curve fit method and efficacy and potency values were calculated as previously described ([Wang et al., 2015]). Plasma and brain levels of SR9983 after oral administration were compared using a two-tailed paired t test. […] For the ICSS threshold experiment, percentages of baseline reward threshold scores were calculated by expressing the absolute threshold scores as a percentage of the scores obtained during baseline. The baseline values were the mean thresholds on the three sessions prior to drug injections. Response latency data were analyzed in the same manner as the threshold data. […] Effects of SR9883 on responding for food pellets in rats was analyzed by a two-tailed paired t test. […] Significant main or interaction effects in ANOVAs were followed by Bonferroni or Newman–Keuls post-hoc tests as appropriate. All statistical analyses were performed using GraphPad Prism software with α set to 0.05.

Assay [2] has as its target T1, human (α4)2(β2)2α5 nAChRs (Homo sapiens, UniProt P17787+P30532+P43681).
T1 construct: expressed in transfected cells
Nature of the assay: FLEXstation membrane potential assay in HEK cells stably expressing (α4)2(β2)2α5 nAChRs. Type of assay: cell-based. To be noted: nicotine 0.001–50 μM, ±SEM.
Text: as §1, §2

Another assay deals with rats. Details: method as in Maurer et al., 2017. The settings on record: ref Maurer et al., 2017; cited from earlier work.
A further assay deals with α4β2* nAChRs. Also noted: method as in earlier work. The settings on record: agonist-induced signaling; ref Wang et al., 2015; Grupe et al., 2013; Appiani et al., 2024; Jin et al., 2014; read-out: EC50 on α4β2* nAChR signaling; cited from earlier work.
The next assay relates to people. Details: method as in Knight et al., 2009. To be noted: placebo approximately 9%; ref Knight et al., 2009; cited from earlier work.

Where a name gives a salt, the structure may show the parent alone.

human (α4)2(β2)2β2/α4 (α4β2*) nAChRs, sequence (P43681 27-627): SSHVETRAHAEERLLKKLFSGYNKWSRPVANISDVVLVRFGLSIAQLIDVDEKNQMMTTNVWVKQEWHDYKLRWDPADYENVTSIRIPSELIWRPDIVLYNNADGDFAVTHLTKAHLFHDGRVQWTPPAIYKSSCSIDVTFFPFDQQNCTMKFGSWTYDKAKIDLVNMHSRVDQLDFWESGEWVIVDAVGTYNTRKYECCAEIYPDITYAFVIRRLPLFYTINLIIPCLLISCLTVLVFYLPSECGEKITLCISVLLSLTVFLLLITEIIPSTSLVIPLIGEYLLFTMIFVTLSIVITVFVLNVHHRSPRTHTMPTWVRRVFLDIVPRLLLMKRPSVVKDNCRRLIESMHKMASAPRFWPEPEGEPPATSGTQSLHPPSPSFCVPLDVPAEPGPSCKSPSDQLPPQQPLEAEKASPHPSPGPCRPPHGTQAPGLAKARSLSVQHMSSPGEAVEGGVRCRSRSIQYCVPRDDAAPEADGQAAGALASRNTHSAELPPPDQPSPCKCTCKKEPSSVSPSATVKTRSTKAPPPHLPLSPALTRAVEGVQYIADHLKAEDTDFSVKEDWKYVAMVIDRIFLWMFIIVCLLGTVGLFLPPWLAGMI
human (α4)2(β2)2β2/α4 (α4β2*) nAChRs, sequence (P17787 26-502): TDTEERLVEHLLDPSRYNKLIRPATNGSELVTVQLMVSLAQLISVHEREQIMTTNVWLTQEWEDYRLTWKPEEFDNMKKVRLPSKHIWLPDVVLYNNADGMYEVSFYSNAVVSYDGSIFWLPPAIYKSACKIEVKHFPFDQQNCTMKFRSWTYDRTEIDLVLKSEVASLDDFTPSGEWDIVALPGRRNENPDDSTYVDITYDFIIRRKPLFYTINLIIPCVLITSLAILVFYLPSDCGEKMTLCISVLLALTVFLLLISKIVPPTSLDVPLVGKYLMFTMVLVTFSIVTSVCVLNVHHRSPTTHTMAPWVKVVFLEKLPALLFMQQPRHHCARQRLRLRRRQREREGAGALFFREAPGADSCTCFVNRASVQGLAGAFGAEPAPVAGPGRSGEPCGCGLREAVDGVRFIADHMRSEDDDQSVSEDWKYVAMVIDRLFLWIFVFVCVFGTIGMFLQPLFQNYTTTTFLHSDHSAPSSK
T1 sequence (P43681 29-627 limits assumed): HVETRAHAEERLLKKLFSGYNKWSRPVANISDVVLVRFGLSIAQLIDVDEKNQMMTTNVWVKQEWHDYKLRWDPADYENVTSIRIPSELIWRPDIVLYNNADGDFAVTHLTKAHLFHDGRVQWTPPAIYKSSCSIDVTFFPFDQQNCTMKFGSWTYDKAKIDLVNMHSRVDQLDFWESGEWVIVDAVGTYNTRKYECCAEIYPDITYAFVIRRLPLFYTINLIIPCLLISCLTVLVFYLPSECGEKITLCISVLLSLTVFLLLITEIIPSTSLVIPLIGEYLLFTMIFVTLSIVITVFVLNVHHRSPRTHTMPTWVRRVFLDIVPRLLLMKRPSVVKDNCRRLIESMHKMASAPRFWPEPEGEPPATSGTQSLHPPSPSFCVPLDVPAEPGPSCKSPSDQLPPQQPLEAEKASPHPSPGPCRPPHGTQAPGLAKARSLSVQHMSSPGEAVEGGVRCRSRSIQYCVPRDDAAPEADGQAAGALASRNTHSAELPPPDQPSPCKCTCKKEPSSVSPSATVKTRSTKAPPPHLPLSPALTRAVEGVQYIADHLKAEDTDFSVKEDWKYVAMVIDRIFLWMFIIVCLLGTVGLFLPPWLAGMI
T1 sequence (P17787 26-502): as the sequence (P17787 26-502) above
T1 sequence (P30532 23-468): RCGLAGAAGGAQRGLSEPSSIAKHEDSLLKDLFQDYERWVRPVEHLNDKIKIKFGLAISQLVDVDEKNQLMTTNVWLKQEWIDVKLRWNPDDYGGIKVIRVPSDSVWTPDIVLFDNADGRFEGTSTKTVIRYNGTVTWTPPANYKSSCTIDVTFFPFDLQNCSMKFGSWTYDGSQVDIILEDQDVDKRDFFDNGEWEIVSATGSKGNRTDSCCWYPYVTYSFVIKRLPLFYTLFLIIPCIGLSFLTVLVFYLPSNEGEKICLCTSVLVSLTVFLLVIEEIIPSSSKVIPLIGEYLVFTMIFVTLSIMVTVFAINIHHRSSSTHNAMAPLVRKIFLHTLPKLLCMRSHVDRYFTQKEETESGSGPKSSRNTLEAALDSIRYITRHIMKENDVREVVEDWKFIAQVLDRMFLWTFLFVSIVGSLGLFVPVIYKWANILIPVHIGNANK

As for `CN1CCC[C@H]1c1cccnc1` [nicotine, (−)-Nicotine hydrogen tartrate salt, reference compound], the Efficacy in assay [1] (+SR9883 (10 μM)) turned out to be 87.20 ± 1.68%; in assay [1] (−SR9883) it was 96.89 ± 2.82%; in assay [2] (+SR9883 (10 μM)), 92.69 ± 2.19%; in assay [2] (−SR9883) it was 100.49 ± 3.89%. For the same molecule, the nHill of nicotine is 1.0749 ± 0.0928 in assay [1] (+SR9883 (10 μM)), 0.8145 ± 0.0740 in assay [1] (−SR9883), 1.2934 ± 0.1439 in assay [2] (+SR9883 (10 μM)) and 0.7395 ± 0.0767 in assay [2] (−SR9883).

The EC50 is the concentration at which the effect is half-maximal. `N#Cc1cccc(-c2nc(-c3cccnc3)no2)c1` [NS9283, 3-[3-(3-pyridyl)-1,2,4-oxadiazol-5-yl]benzonitrile]: the “Intravenous nicotine self-administration behavior” value in the assay on rats is “decrease”. Also, the EC50 in the assay with α4β2* nAChRs is approximately 1 µM.

`CC(NC(C)(C)C)C(=O)c1cccc(Cl)c1` (stereo not drawn) [Zyban, bupropion]: the “People remaining abstinent after 1 year of a quit attempt” value with people is listed as approximately 16%.

`c1cnc2cc3c(cc2n1)[C@@H]1CNC[C@H]3C1` [Chantix, varenicline]: the “People remaining abstinent after 1 year of a quit attempt” value in the assay with people is “approximately 23%”.
